Experimental data taken from US20120277238A1, “PHARMACEUTICAL COMPOSITION CONTAINING FUSED HETERO-RING DERIVATIVE” (Shionogi & Co., Ltd, priority 2009, published 2012).

Tests used:
CYP3A4 [1] = biological target: T1, CYP3A4 (Homo sapiens, UniProt P08684); test: CYP inhibition test (pooled human hepatic microsome); type: in vitro ADME; set-up: enzyme, pooled human hepatic microsome 0.2 mg protein/mL; from tissue; conditions: terfenedine hydroxylation
Experimental: Using commercially available pooled human hepatic microsome, and employing, as markers, 7-ethoxyresorufin O-deethylation (CYP1A2), tolbutamide methylhydroxylation (CYP2C9), mephenyloin 4′-hydroxylation (CYP2C19), dextromethorphan O-demethylation (CYP2D6), and terfenedine hydroxylation as typical substrate metabolism reactions of human main five CYP enzyme forms (CYP1A2, 2C9, 2C19, 2D6, 3A4), an inhibitory degree of each metabolite production amount by a test compound was assessed. […] After the centrifugation at 3000 rpm for 15 minutes, resorufin (CYP1A2 metabolite) in the supernatant was quantified by a fluorescent multilabel counter and tributamide hydroxide (CYP2CP metabolite), mephenyloin 4′ hydroxide (CYP2C19 metabolite), […], and terfenadine alcohol (CYP3A4 metabolite) were quantified by LC/MS/MS. Addition of only DMSO being a solvent dissolving a drug to a reaction system was adopted as a control (100%), remaining activity (%) was calculated at each concentration of a test drug added as the solution and IC50 was calculated by reverse presumption by a logistic model using a concentration and an inhibition rate.

human HRH4 = biological target: T2, human HRH4 (Homo sapiens, UniProt Q9H3N8); test: Histamine H4 receptor binding test ([3H]-Histamine radioligand binding); conditions: membrane fraction of CHO-K1 expressing human HRH4; [3H]-Histamine 15 nM; Ki by Cheng-Prusoff
T2 construct: purchased PerkinElmer
Experimental: Membrane fraction of CHO-K1 stably expressing human HRH4 was purchased from PerkinElmer. Radioligand binding assay was performed in 96 well polypropylene assay plates in a total assay volume of 150 μL. Membrane suspension (15 μg of protein) was mixed with [3H]-Histamine (PerkinElmer) at 15 nM and compounds at various concentration in 50 mM Tris-HCl pH7.4, 5 mM EDTA buffer. Assays were incubated for 60 min at room temperature, then the reactions were terminated by rapid filtration over 96-well GF/B filter plates (PerkinElmer) presoaked in 0.5% polyethyleneimine. Unbound radioactivity was eliminated by six times of wash with 350 μL of ice-cold 50 mM Tris pH7.4 buffer. When the filter plates were dried, Microscint-MS liquid scintillation fluid (PerkinElmer) was added to each well and retained radioactivity plates were counted in a Topcount liquid scintillation counter (PerkinElmer). Specific binding was calculated by subtracting non-specific binding determined in the presence of 100 μM unlabeled histamine from total count.
The resulting data were analyzed for IC50 using the non-linear regression on XLfit.
Affinity values (Ki) were then determined by Cheng-Prusoff equation.

CYP2C19 = biological target: T3, CYP2C19 (Homo sapiens, UniProt P33261); test: CYP inhibition test (pooled human hepatic microsome); type: in vitro ADME; conditions: mephenyloin 4′-hydroxylation
T3 construct: enzyme, pooled human hepatic microsome 0.2 mg protein/mL; from tissue
Experimental: (§1) Using commercially available pooled human hepatic microsome, and employing, as markers, 7-ethoxyresorufin O-deethylation (CYP1A2), tolbutamide methylhydroxylation (CYP2C9), mephenyloin 4′-hydroxylation (CYP2C19), dextromethorphan O-demethylation (CYP2D6), and terfenedine hydroxylation as typical substrate metabolism reactions of human main five CYP enzyme forms (CYP1A2, 2C9, 2C19, 2D6, 3A4), an inhibitory degree of each metabolite production amount by a test compound was assessed. The reaction conditions were as follows: substrate, 0.5 μmol/L ethoxyresorufin (CYP1A2), 100 μmol/L tolbutamide (CYP2C9), 50 μmol/L S-mephenitoin (CYP2C19), 5 μmol/L dextromethorphan (CYP2D6), 1 μmol/L terfenedine (CYP3A4); reaction time, 15 minutes; reaction temperature, 37° C.; enzyme, pooled human hepatic microsome 0.2 mg protein/mL; test drug concentration, 1, 5, 10, 20 μmol/L (four points). Each five kinds of substrates, human hepatic microsome, or a test drug in 50 mM Hepes buffer as a reaction solution was added to a 96-well plate at the composition as described above, NADPH, as a cofactor was added to initiate metabolism reactions as markers and, after the incubation at 37° C. for 15 minutes, a methanol/acetonitrile=1/1 (v/v) solution was added to stop the reaction. After the centrifugation at 3000 rpm for 15 minutes, resorufin (CYP1A2 metabolite) in the supernatant was quantified by a fluorescent multilabel counter and tributamide hydroxide (CYP2CP metabolite), mephenyloin 4′ hydroxide (CYP2C19 metabolite), […] (CYP2D6 metabolite), and terfenadine alcohol (CYP3A4 metabolite) were quantified by LC/MS/MS. Addition of only DMSO being a solvent dissolving a drug to a reaction system was adopted as a control (100%), remaining activity (%) was calculated at each concentration of a test drug added as the solution and IC50 was calculated by reverse presumption by a logistic model using a concentration and an inhibition rate.

CYP1A2 = biological target: T4, CYP1A2 (Homo sapiens, UniProt P05177); test: as above; type: in vitro ADME; conditions: 7-ethoxyresorufin O-deethylation
T4 construct: enzyme, pooled human hepatic microsome 0.2 mg protein/mL; from tissue
T4 sequence (P05177 1-516): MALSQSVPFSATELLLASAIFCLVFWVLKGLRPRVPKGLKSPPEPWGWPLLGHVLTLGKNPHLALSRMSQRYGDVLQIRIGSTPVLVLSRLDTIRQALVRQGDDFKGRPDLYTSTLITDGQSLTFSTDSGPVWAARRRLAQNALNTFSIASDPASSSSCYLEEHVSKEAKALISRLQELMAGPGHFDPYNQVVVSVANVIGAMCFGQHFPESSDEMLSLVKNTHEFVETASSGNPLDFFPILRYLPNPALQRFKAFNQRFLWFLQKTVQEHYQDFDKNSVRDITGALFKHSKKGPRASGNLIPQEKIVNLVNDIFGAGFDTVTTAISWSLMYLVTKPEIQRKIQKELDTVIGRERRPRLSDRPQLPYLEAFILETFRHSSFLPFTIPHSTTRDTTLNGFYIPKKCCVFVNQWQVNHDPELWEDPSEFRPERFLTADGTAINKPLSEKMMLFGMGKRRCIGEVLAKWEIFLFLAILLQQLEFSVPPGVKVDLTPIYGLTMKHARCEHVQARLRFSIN
Experimental: as §1

CYP2C9 = biological target: T5, CYP2C9 (Homo sapiens, UniProt P11712); test: as above; type: in vitro ADME; conditions: tolbutamide methylhydroxylation
T5 construct: enzyme, pooled human hepatic microsome 0.2 mg protein/mL; from tissue
Experimental: as §1

CYP2D6 = biological target: T6, CYP2D6 (Homo sapiens, UniProt P10635); test: as above; type: in vitro ADME; conditions: dextromethorphan O-demethylation
T6 construct: enzyme, pooled human hepatic microsome 0.2 mg protein/mL; from tissue
Experimental: as §1

CYP3A4 [2] = biological target: T1, CYP3A4; test: CYP3A4 fluorescent MBI test; type: in vitro ADME; set-up: host or cells: Escherichia coli; conditions: prereaction 0 or 30 minutes; substrate 7-BFC; CYP3A4 expressed in Escherichia coli
Experimental: The CYP3A4 fluorescent MBI test is a test of investigating enhancement of CYP3A4 inhibition of a compound by a metabolism reaction, and the test was performed using, as CYP3A4 enzyme expressed in Escherichia coli and employing, as an index, a reaction in which 7-benzyloxytrifluoromethylchmarin (BFC) is debenzylated by the CYP3A4 enzyme to produce a metabolite, 7-hydroxytrifluoromethylchmarin (HFC) emitting fluorescent light.
The reaction conditions were as follows: substrate, 5.6 μmol/L 7-BFC; prereaction time, 0 or 30 minutes; reaction time, 15 minutes; reaction temperature, 25° C. […]
An enzyme in a K-Pi buffer (pH 7.4) and a test drug solution as a pre-reaction solution were added to a 96-well plate at the composition of the pre-reaction, a part of it was transferred to another 96-well plate so that it was 1/10 diluted by a substrate in a K-Pi buffer, NADPH as a co-factor was added to initiate a reaction as an index (without preincubation) and, after a predetermined time of a reaction, acetonitrile/0.5 mol/L Tris(trishydroxyaminomethane)=4/1 was added to stop the reaction. […] For the plate on which each index reaction had been performed, a fluorescent value of 7-HFC which is a metabolite was measured with a fluorescent plate reader. […]

[3] = Solubility test (artificial intestinal juice pH 6.8, 1% DMSO); type: physicochemical; conditions: artificial intestinal juice pH 6.8 with 1% DMSO, fassgf or other biorelevant, kinetic from dmso stock, 25° C.
Experimental: The solubility of a compound is determined under a condition in which 1% DMSO is added. 10 mM compound solution is prepared using DMSO, and then 6 μL of the compound solution is added to 594 μL of artificial intestinal juice in pH 6.8 (to 250 mL of 0.2 mol/L potassium dihydrogen phosphate reagent solution is added 118 mL of 0.2 mol/L NaOH reagent solution and water to provide a final volume of 1000 mL). After standing at 25° C. for 16 hours, the mixed solution is filtrated with suction. The filtrate is diluted twice with methanol/water (1/1), and then a concentration in the filtration is measured with HPLC or LC/MS/MS by the absolute calibration method.

hERG (IKr) = biological target: T7, hERG (IKr) (Homo sapiens, UniProt Q12809); test: hERG test (whole cell patch clamp, IKr); type: cell-based; conditions: HEK293 cells expressing hERG channel, pH 7.4, at 1 μmol/L, read-out: % inhibition of IKr (hERG tail peak current)
T7 construct: expressed in transfected cells; host or cells: HEK293
Source text: For the purpose of assessing risk of an electrocardiogram QT interval prolongation, effects on delayed rectifier K^+ current (IKr), which plays an important role in the ventricular repolarization process, was studied using HEK293 cells expressing human ether-a-go-go related gene (hERG) channel. After a cell was retained at a membrane potential of −80 mV by whole cell patch clamp method using an automated patch clamp system (PatchXpress 7000A, Axon Instruments Inc.), IKr induced by depolarization pulse stimulation at +50 mV for 2 seconds and, further, repolarization pulse stimulation at −50 mV for 2 seconds was recorded. […] From the recording IKr, an absolute value of the tail peak current was measured based on the current value at the resting membrane potential using an analysis software (DataXpress ver.1, Molecular Devices Corporation). Further, the % inhibition relative to the tail peak current before application of the test substance was calculated, and compared with the vehicle-applied group (0.1% dimethyl sulfoxide solution) to assess influence of the test substance on IKr.

[4] = Bioavailability (BA) test and total body clearance test; type: in vivo; conditions: plasma; rat; oral 1 mg/kg dosage
Experimental: (1) Animal: mice or rats (2) Breeding conditions: mice and rats are allowed to freely take solid feed and sterilized tap water (3) Dose and grouping: orally or intravenously administered at a predetermined dose; grouping is as follows (Dose depends on the compound)
Oral administration: 1 to 30 mg/kg (n=2 to 3)
Intravenous administration: 0.5 to 10 mg/kg (n=2 to 3)
(4) Preparation of dosing solution: for oral administration, in a solution or a suspension state; for intravenous administration, in a solubilized state (5) Administration method: in oral administration, forcedly administer into ventriculus with oral probe; in intravenous administration, administer from caudal vein with a needle-equipped syringe (6) Evaluation items: blood is collected over time, and the plasma concentration of drug is measured by LC/MS/MS (7) Statistical analysis: regarding the transition of the plasma concentration, the area under the plasma concentration-time curve (AUC) and total body clearance (Clt) are calculated by non-linear least squares program WinNonlin (Registered trademark), and the bioavailability (BA) is calculated from the AUCs of the oral administration group and intravenous administration group
The following values show the rat BA of the compounds on oral 1 mg/kg dosage.

T2 sequence (Q9H3N8 whole entry): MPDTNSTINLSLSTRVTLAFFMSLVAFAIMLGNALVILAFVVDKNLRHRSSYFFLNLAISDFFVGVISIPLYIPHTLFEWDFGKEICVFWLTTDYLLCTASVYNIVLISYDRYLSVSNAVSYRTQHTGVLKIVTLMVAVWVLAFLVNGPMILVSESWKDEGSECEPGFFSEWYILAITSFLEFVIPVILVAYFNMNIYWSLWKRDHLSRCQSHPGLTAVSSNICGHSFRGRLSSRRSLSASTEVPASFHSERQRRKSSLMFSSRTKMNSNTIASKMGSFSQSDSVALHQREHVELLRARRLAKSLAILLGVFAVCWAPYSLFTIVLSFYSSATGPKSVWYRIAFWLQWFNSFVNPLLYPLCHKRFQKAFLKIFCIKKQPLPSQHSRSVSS
T7 sequence (Q12809 whole entry): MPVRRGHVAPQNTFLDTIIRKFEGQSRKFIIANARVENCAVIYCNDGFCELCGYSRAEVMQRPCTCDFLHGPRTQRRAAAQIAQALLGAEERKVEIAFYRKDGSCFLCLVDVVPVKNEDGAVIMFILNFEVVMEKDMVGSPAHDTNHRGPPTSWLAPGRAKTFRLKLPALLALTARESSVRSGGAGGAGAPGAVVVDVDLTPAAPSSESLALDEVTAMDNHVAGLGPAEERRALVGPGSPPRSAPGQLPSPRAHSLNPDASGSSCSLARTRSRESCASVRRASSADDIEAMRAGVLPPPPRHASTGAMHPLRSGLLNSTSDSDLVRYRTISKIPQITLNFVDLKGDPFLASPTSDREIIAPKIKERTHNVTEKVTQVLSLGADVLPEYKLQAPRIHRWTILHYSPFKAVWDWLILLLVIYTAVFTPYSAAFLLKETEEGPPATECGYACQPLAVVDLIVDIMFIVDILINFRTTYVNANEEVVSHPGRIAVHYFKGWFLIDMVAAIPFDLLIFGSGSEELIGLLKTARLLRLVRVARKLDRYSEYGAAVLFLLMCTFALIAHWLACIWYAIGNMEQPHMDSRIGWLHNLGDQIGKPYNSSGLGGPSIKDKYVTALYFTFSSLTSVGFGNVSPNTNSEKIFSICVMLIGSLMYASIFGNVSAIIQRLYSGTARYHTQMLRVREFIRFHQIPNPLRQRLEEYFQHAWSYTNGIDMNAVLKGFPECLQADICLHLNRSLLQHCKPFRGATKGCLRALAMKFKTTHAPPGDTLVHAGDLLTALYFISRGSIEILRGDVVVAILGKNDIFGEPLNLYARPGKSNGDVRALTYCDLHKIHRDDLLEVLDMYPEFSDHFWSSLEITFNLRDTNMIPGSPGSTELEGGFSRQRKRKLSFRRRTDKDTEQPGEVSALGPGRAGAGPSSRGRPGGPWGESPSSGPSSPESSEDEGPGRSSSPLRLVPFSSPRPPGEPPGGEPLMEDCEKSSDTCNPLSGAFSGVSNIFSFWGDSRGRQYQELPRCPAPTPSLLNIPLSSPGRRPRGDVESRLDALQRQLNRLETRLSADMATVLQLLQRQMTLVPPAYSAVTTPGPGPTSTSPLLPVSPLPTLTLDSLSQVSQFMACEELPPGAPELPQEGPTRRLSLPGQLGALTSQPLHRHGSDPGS
T1 sequence (P08684 whole entry): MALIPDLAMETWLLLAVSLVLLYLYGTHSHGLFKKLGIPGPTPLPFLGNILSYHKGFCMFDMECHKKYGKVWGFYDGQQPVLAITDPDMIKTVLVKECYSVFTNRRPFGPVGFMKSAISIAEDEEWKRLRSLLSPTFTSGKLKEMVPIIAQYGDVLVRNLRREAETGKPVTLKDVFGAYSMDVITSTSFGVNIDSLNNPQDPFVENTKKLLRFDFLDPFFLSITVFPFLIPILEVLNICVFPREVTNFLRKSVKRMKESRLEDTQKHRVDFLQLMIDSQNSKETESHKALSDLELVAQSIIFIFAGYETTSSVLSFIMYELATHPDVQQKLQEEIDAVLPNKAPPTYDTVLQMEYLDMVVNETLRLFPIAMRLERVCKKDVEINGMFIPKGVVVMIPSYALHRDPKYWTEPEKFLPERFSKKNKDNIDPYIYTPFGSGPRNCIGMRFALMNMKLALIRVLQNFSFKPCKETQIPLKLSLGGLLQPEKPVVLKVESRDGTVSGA
T6 sequence (P10635 whole entry): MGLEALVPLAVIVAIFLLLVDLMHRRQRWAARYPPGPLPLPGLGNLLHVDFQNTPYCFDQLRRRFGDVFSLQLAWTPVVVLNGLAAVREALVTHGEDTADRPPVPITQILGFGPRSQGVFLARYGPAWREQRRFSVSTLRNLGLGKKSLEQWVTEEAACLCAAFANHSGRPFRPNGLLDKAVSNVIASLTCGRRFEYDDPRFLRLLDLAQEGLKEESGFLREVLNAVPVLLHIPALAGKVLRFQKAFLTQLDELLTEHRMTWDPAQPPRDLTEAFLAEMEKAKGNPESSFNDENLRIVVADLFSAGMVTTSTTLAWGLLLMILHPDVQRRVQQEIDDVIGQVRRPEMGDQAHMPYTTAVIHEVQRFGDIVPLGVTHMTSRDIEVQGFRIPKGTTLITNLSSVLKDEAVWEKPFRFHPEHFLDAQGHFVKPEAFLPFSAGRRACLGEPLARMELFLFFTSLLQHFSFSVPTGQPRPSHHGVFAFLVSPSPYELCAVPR
T3 sequence (P33261 whole entry): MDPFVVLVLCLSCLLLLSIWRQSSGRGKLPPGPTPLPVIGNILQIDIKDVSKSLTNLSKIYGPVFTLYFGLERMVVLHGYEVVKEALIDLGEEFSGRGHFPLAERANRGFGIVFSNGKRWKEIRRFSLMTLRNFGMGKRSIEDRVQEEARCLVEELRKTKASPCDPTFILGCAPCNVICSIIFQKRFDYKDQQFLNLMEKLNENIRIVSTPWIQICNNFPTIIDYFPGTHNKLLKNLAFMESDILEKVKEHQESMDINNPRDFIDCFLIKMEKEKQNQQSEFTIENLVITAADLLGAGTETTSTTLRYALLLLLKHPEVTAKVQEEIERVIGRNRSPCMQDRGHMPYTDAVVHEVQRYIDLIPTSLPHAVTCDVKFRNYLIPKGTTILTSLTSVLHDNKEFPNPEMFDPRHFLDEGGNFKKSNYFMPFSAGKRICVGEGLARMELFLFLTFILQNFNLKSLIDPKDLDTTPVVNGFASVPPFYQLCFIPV
T5 sequence (P11712 whole entry): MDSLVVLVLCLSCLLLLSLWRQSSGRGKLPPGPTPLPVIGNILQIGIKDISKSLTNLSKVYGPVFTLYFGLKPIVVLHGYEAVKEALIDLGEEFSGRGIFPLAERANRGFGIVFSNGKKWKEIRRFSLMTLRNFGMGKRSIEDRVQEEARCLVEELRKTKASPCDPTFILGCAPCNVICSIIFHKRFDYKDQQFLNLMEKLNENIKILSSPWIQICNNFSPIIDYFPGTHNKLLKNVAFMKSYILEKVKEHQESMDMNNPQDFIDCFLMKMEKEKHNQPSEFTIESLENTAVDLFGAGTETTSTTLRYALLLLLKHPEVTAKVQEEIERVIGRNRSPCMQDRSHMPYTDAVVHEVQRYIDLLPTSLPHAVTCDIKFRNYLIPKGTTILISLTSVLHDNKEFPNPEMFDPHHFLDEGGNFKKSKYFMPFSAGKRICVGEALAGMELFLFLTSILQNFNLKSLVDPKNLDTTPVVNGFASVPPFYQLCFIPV

CN1CCN(C(=O)c2cc3c([nH]2)CCC(F)(F)C3)CC1 [Compound I-050]
IC50 (CYP3A4 [1]): > 20000 nM
Ki (human HRH4): 63 nM
IC50 (CYP2C19): > 20000 nM
IC50 (CYP1A2): > 20000 nM
IC50 (CYP2C9): > 20000 nM
IC50 (CYP2D6): > 20000 nM
CYP3A4 MBI: difference between IC50 values (CYP3A4 [2]): (−) (when the difference is 3 μM or less, this was defined as (−))
solubility at 16 h [3]: > 50 µM

CN1CCN(C(=O)c2cc3c([nH]2)CCC(C#N)C3)CC1 (stereo not shown) [Compound I-035]
inhibition at 10 min, 1 μmol/L (hERG (IKr)): 0%
bioavailability [4]: 31%
Ki (human HRH4): 150 nM

CN1CCN(C(=O)c2cc3c([nH]2)C(CO)CCC3)CC1 (stereo not shown) [Compound I-043]
inhibition at 10 min, 1 μmol/L (hERG (IKr)): 0%
Ki (human HRH4): 270 nM
